We go through one sequence from publication PMC7502707, “Characterization and validation of a preventative therapy for hypertrophic cardiomyopathy in a murine model of the disease” (Proceedings of the National Academy of Sciences of the …, 2020).

One data set has as its system rats. To be noted: cited from earlier work.
In data set [1] the test system is myocytes isolated from wt and cTnI-G203S mice. The experiment in a line: Flavoprotein oxidation in myocytes isolated from treated mice. To be noted: myocytes from precardiomyopathic cTnI-G203S mice treated 10 μM i.p. 3×/wk/5 wk from 20 wk. In kind it is in vivo, mouse.
Method: Male mice expressing the human cTnI gene encoding the human disease-causing mutation cTnI-G203S were used for all studies. […] Male mice expressing the normal human cTnI gene were used as controls (wt). Ten-week-old mice were used for in vitro studies. For in vivo studies, 20- or 30-wk-old cTnI-G203S mice were treated with 10 μM AID-TAT or AID[S]-TAT via intraperitoneal injection, 3×/wk/5 wk. In vivo dose of AID-TAT or AID[S]-TAT (10 μM) was calculated based on blood volume, equating to ∼2 mg/kg total BW. Male animal models were used to eliminate potential differences in responses due to sex. Experiments were performed in a total of 21 wt (AID[S]-TAT), 6 wt (AID-TAT), 15 cTnI-G203S (AID[S]-TAT), and 26 cTnI-G203S (AID-TAT) mice. All animals were randomly assigned to treatment groups.
Fluorescence was measured on a Hamamatsu Orca ER digital camera attached to an inverted Nikon TE2000-U microscope. […]
Additionally, individual 580 nm and 535 nm wavelength signals were assessed in each experiment to determine whether the fluorescent indicator was accurately measuring m. […] Ratiometric JC-1 or flavoprotein fluorescent signals were quantified by manually tracing myocytes and subtracting an equivalent background region […]
In a further data set the test system is wt and cTnI-G203S mice. The experiment in a line: Toxicity parameters: terminal serum urea, creatinine, ALT, AST and body weight. In kind it is in vivo, mouse. On the procedure:
Mice were treated with 10 μM AID(S)-TAT or AID-TAT 3×/wk/5 wk (equaling 15 doses). BW was recorded prior to administration of each peptide dose, and reported as a percentage of day 1 BW. A 5 to 10% reduction in BW directed increased monitoring as recommended by The Animal Ethics Committee of The University of Western Australia in accordance with the 2008 Guidelines to Promote the Wellbeing of Animals Used for Scientific Purposes ([65]). Following completion of treatment regimen, mice were anesthetized and terminal blood collected. Serum was extracted and used to measure kidney and liver toxicity as previously described ([66]). Detailed methods are provided in SI Appendix.
Echocardiographic measurement of left ventricular function were performed on mice under light methoxyflurane anesthesia using an i13L probe on a Vivid 7 Dimension ultrasound system (GE Healthcare, Little Chalfont, United Kingdom) as previously described (4, 7). Echocardiographic measurements were taken on M-mode in triplicate from separate mice at a sweep speed of 200 mm/s. Each n represents the average of quantitative measurements from wt or cTnI-G203S mice for each treatment group. Measurements of left ventricular end diastolic diameter (LVEDD), left ventricular end systolic diameter (LVESD), fractional shortening (FS), left ventricular posterior wall in diastole (LVDPW), left ventricular posterior wall in systole (LVSPW), interventricular septum in diastole (IVSD), interventricular septum in systole (IVSS) and end diastolic diameter (EDD) were made. FS was calculated by the formula [(LVEDD-LVESD)/EDD] x 100.
(§1) Cell size was determined as previously described (16). […]
(§2) To measure kidney toxicity, urea and creatinine concentration was assessed using QuantiChrom Urea and Creatinine assay kits respectively (BioAssay Systems, Hayward CA). To measure liver toxicity, alanine transaminase (ALT) and aspartate transaminase (AST) concentration was measured using Alanine Transaminase and Aspartate Transaminase assay kits respectively (BioAssay Systems, Hayward CA). […]

Data set [2] has as its system myocytes isolated from cTnI-G203S mice. Description: Cell size of myocytes isolated from treated mice. In kind it is in vivo, mouse. The following applies: 10 μM 3×/wk/5 wk, compared to AID(S)-TAT. On the procedure: Cell size was determined as previously described ([64]). Detailed methods are provided in SI Appendix.
Echocardiographic measurement of left ventricular function were performed on mice under light methoxyflurane anesthesia using an i13L probe on a Vivid 7 Dimension ultrasound system (GE Healthcare, Little Chalfont, United Kingdom) as previously described (4, 7). Echocardiographic measurements were taken on M-mode in triplicate from separate mice at a sweep speed of 200 mm/s. Each n represents the average of quantitative measurements from wt or cTnI-G203S mice for each treatment group. […] FS was calculated by the formula [(LVEDD-LVESD)/EDD] x 100.
as §1, §2

[3] abbreviates: terminal serum, 10 μM 3×/wk/5 wk.

Take QQLEEDLKGYLDWITQAE [AID-TAT]: in the data set on rats (following coronary artery occlusion in rats), the “contractility and cardiac hypertrophy” value was “improves contractility and prevents the development of cardiac hypertrophy”. Also, in the data set on rats (rat, in vivo), the “blood pressure and cardiac myocyte calcium influx” value is “without decreasing blood pressure or altering cardiac myocyte calcium influx”. In addition, the “increase in flavoprotein oxidation following BayK(−)” value in data set [1] was “reduced this response to a level comparable to that observed in wt myocytes”. Moreover, the “body weight over the course of treatment” value in the data set on wt and cTnI-G203S mice (15 doses, % of day 1 BW) was “no significant reduction”. In the data set with wt and cTnI-G203S mice (setting [3]), the “kidney toxicity: serum urea and creatinine” value was “No significant alterations”; the “liver toxicity: serum ALT and AST” value is listed as “No significant alterations”. In data set [2] (30-wk-old cTnI-G203S mice), the “echocardiographic parameters and cell size” value is reported as “did not significantly improve echocardiographic parameters, or alter cell size”. In data set [2] (precardiomyopathic cTnI-G203S mice), the myocyte cell size result is reported as “significantly lower cell size”.
